Experimental data taken from patent US8367614B2, “Rheumatoid arthritis-preventive agent for oral intake” (Calpis Co., Ltd, priority 2006, dated 2013).

Columns and labels:
[1] = tested on: adjuvant arthritis; experiment: Adjuvant arthritis in rats, arthritis score (Example 1 and Comparative Examples 1-3); type: in vivo, Female Lewis rats; conditions: test material 10% in 0.5% CMC, 1 ml/100 g oral once a day, average ± standard error
[2] = tested on: adjuvant arthritis; experiment: Adjuvant arthritis in rats, arthritis score (Example 2)

Molecule	Arthritis score ([1]; day 0 to 21, day 0, max 12 points)	Arthritis score ([1]; day 5)	Arthritis score ([1]; day 9)	Arthritis score ([1]; day 14)	Arthritis score ([1]; day 19)	Arthritis score ([1]; day 22)	Arthritis score ([2]; Ibuprofen 0.3% in 0.5% CMC, 1 ml/100 g oral once a day, day 0)	Arthritis score ([2]; Ibuprofen 0.3%, oral once a day, day 5)	Arthritis score ([2]; Ibuprofen 0.3%, oral once a day, day 9)	Arthritis score ([2]; Ibuprofen 0.3%, oral once a day, day 14)	Arthritis score ([2]; Ibuprofen 0.3%, oral once a day, day 19)	Arthritis score ([2]; Ibuprofen 0.3%, oral once a day, day 21)
sodium caseinate [Comp. Ex. 2]	0.00	0.00	1.25 ± 0.37	8.25 ± 0.62	10.50 ± 0.33	10.38 ± 0.32	–	–	–	–	–	–
CC(C)Cc1ccc(C(C)C(=O)O)cc1 (stereo not drawn) [Ibuprofen]	–	–	–	–	–	–	0	0	0.1 ± 0.1	6.5 ± 0.6	9.0 ± 0.5	9.5 ± 0.3
